In patent US8815909B2, “Diaminocyclohexane compounds and uses thereof” (Bristol-Myers Squibb Company, priority 2011, dated 2014):

biological target: T1, human Y4 receptor (Homo sapiens, UniProt P50391); assay: NPY4 cAMP HTRF Agonist Assay (inhibitory cAMP assay, Gi activation by Y4 agonism); format: cell-based; conditions: TABLE 2, R2 is Phenyl-CN; read-out: hY4 CAMP EC50
T1 construct: expressed in transfected cells
Summary of the method: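 Y4 agonism read as lowered forskolin-stimulated cAMP (HTRF, 1 h detection at room temperature). Stable human Y4 CHO clone, 5000 cells/well, incubated 30 min at room temperature with compounds plus forskolin and IBMX in PBS.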

T1 sequence (P50391 whole entry): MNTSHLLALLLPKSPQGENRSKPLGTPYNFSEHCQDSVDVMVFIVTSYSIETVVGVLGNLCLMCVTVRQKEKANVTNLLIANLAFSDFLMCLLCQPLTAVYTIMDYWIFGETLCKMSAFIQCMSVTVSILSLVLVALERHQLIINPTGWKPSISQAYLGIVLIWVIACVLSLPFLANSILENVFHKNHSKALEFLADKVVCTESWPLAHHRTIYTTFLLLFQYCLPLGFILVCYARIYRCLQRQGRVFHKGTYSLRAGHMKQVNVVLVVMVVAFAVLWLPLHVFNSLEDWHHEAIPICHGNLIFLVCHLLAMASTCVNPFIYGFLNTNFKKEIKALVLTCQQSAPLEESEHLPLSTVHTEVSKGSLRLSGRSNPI

EC50 | SMILES
468 nM | N#Cc1ccc(N2CCC[C@H](N[C@@H]3CCCC[C@H]3Nc3cc(-c4ccccn4)ccn3)C2)cc1 [Example 270]
46 nM | COc1ccc(-c2ccnc(N[C@@H]3CCCC[C@H]3N[C@H]3CCCN(c4ccc(C#N)cc4)C3)c2)cn1 [Example 222]
964 nM | N#Cc1ccc(N2CCC[C@H](N[C@@H]3CCCC[C@H]3Nc3cc(Cc4ccn[nH]4)ccn3)C2)cc1 [Example 214]
152 nM | N#Cc1ccc(N2CCC[C@H](N[C@@H]3CCCC[C@H]3Nc3cc4ccccc4cn3)C2)cc1 [Example 281]
272 nM | N#Cc1ccc(N2C[C@@H]3C[C@H](N[C@@H]4CCCC[C@H]4Nc4ncc(-c5ccc(C(N)=O)cc5)o4)[C@H]2C3)cc1 [Example 238]
181 nM | N#Cc1ccc(N2C[C@@H]3C[C@H](N[C@@H]4CCCC[C@H]4Nc4ncc(-c5cccc(C#N)c5)o4)[C@H]2C3)cc1 [Example 266]
196 nM | N#Cc1ccc(N2C[C@@H]3C[C@H](N[C@@H]4CCCC[C@H]4Nc4cc(Br)ccn4)[C@H]2C3)cc1 [Example 233]
87 nM | COc1cccc(-c2ccnc(N[C@@H]3CCCC[C@H]3N[C@H]3CCCN(c4ccc(C#N)cc4)C3)c2)c1 [Example 263]
11 nM | CC(C)(O)c1cccc(-c2ccnc(N[C@@H]3CCCC[C@H]3N[C@H]3CCCN(c4ccc(C#N)cc4)C3)c2)c1 [Example 260]
7 nM | CC(=O)NCc1cccc(-c2ccnc(N[C@@H]3CCCC[C@H]3N[C@H]3CCCN(c4ccc(C#N)cc4)C3)c2)c1 [Example 244]

same assay, conditions: TABLE 4, R2 is Pyridinyl-CN; read-out: hY4 CAMP EC50

EC50 | SMILES
124 nM | N#Cc1cc(N2C[C@@H]3C[C@H](N[C@@H]4CCCC[C@H]4Nc4ncc(-c5ccc(OC(F)(F)F)cc5)o4)[C@H]2C3)ccn1 [Example 310]
66 nM | C[C@]1(N[C@@H]2CCCC[C@H]2Nc2cc(-c3cccc(C(N)=O)c3)ccn2)CCCN(c2ccc(C#N)cn2)C1 [Example 301]

same assay, conditions: TABLE 7, R2 is Pyridinyl-oxadiazole-CH3; read-out: hY4 CAMP EC50

EC50 | SMILES
78 nM | Cc1nc(-c2ccc(N3CCC[C@H](N[C@@H]4CCCC[C@H]4Nc4ncc(-c5cccc(C(=O)NC6CC6)c5)o4)C3)cn2)no1 [Example 387]
194 nM | Cc1nc(-c2ccc(N3CCC[C@H](N[C@@H]4CCCC[C@H]4Nc4ncc(-c5ccc(OC(F)(F)F)cc5)o4)C3)nc2)no1 [Example 392]

same assay, conditions: human Y4 receptor, cAMP; read-out: hY4 CAMP EC50

SMILES | EC50
NC(=O)c1cccc(-c2ccnc(N[C@@H]3CCCC[C@H]3N[C@H]3CCCN(c4ccc(F)cc4)C3)c2)c1 [Example 453] | 41 nM
Cc1nc(-c2ccc(N3C[C@@H]4C[C@H](N[C@@H]5CCCC[C@H]5Nc5ncc(-c6ccc(OC(F)(F)F)cc6)o5)[C@H]3C4)cc2)no1 [Example 351] | 448 nM
COc1ncccc1-c1ccnc(N[C@@H]2CCCC[C@H]2NC2CCCN(c3ccc(-c4nnc(C)o4)cc3)C2)c1 (some centres unmarked) [Example 372] | 59 nM
Cc1nc2ccc(N3CCC[C@H](N[C@@H]4CCCC[C@H]4Nc4cc(-c5cccc(C(N)=O)c5)ccn4)C3)cn2n1 [Example 491] | 22 nM
CCc1nc(-c2ccc(N3CCC[C@H](N[C@@H]4CCCC[C@H]4Nc4cc(-c5cccc(C(N)=O)c5)ccn4)C3)nc2)no1 [Example 447] | 8 nM
Cc1nc(-c2ncc(N3CCC[C@H](N[C@@H]4CCCC[C@H]4Nc4cc(C#N)ccn4)C3)cn2)no1 [Example 469] | 96 nM

Second part, the molecule after the results:

EC50 | SMILES
7 nM | CC(C)COC(=O)Nc1cccc(-c2cnc(N[C@@H]3CCCC[C@H]3N[C@H]3CCCN(c4cnc(C(F)(F)F)nc4)C3)o2)c1 [Example 419]
42 nM | Cc1nc2ccc(N3CCC[C@H](N[C@@H]4CCCC[C@H]4Nc4ncc(-c5cccc(C(=O)NC6CC6)c5)o4)C3)cn2n1 [Example 494]
38 nM | Cc1nc2ccc(N3CCC[C@H](N[C@@H]4CCCC[C@H]4Nc4ncc(-c5ccc(F)c(F)c5)o4)C3)cn2n1 [Example 492]
144 nM | N#Cc1cnc(N2C[C@@H]3C[C@H](N[C@@H]4CCCC[C@H]4Nc4ncc(-c5cccc(C(N)=O)c5)o4)[C@H]2C3)nc1 [Example 433]
25 nM | N#Cc1cnc(N2CCC[C@H](N[C@@H]3CCCC[C@H]3Nc3ncc(-c4cccc(C(N)=O)c4)o3)C2)cn1 [Example 478]
41 nM | NC(=O)c1cccc(-c2cnc(N[C@@H]3CCCC[C@H]3N[C@H]3C[C@@H]4C[C@H]3N(c3ncc(C(F)(F)F)cn3)C4)o2)c1 [Example 422]
4 nM | C[C@]1(N[C@@H]2CCCC[C@H]2Nc2ncc(-c3cccc(C(N)=O)c3)o2)CCCN(c2ccc(C(=N)NC(=O)C3CC3)nc2)C1 [Example 445]
9 nM | Cc1nc(-c2ncc(N3CCC[C@H](N[C@@H]4CCCC[C@H]4Nc4cc(-c5ccc(F)cc5F)ccn4)C3)cn2)no1 [Example 468]
0.02 nM | COC(=O)Nc1cccc(-c2ccnc(N[C@@H]3CCCC[C@H]3N[C@H]3CCCN(c4cnc(-c5noc(C)n5)nc4)C3)c2)c1 [Example 465]
47 nM | Cc1nc2ccc(N3CCC[C@H](N[C@@H]4CCCC[C@H]4Nc4ncc(-c5ccc(F)cc5F)o4)C3)cn2n1 [Example 493]
162 nM | NC(=O)c1cccc(-c2cnc(N[C@@H]3CCCC[C@H]3N[C@H]3C[C@@H]4C[C@H]3N(c3cnc(C(F)(F)F)cn3)C4)o2)c1 [Example 470]
171 nM | N#Cc1ncc(N2CCC[C@H](N[C@@H]3CCCC[C@H]3Nc3cc(-c4cccc(C(N)=O)c4)ccn3)C2)cn1 [Example 431]

same assay, conditions: human Y4 stable CHO clonal cells, forskolin + IBMX; read-out: NPY4 cAMP HTRF Agonist Assay EC50

SMILES | EC50
N#Cc1ccc(N2CCC[C@H](N[C@@H]3CCCC[C@H]3Nc3noc(-c4ccccc4)n3)C2)cc1 [Example 41] | 2510 nM
CC(C)(C)Oc1ccc(-c2cnc(N[C@@H]3CCCC[C@H]3N[C@H]3CCCN(c4ccc([N+](=O)[O-])cc4)C3)o2)cc1 [Example 14, (1R,2R)—N1-(5-(4-tert-Butoxyphenyl)oxazol-2-yl)-N2-((S)-1-(4-nitrophenyl)piperidin-3-yl)cyclohexane-1,2-diamine] | 920 nM
N#Cc1ccc(N2CCC[C@H](N[C@@H]3CCCC[C@H]3Nc3nccc(-c4ccccc4)n3)C2)cc1 [Example 60, 4-((S)-3-((1R,2R)-2-(4-Phenylpyrimidin-2-ylamino)cyclohexylamino)piperidin-1-yl)benzonitrile bis-trifluoroacetate] | 500 nM
Cc1nnc(-c2ccc(N3CCC[C@H](N[C@@H]4CCCC[C@H]4Nc4nccc(-c5ccccc5)n4)C3)cc2)o1 [Example 84, (1R,2R)—N1-((S)-1-(4-(5-Methyl-1,3,4-oxadiazol-2-yl)phenyl)piperidin-3-yl)-N2-(4-phenylpyrimidin-2-yl)cyclohexane-1,2-diamine bis-trifluoroacetate] | 9 nM
CC(C)(C)OC(=O)/C=C\c1ccnc(N[C@@H]2CCCC[C@H]2N[C@H]2CCCN(c3ccc(C#N)cc3)C2)c1 [Example 108, (Z)-tert-butyl 3-(2-(((1R,2R)-2-(((S)-1-(4-cyanophenyl)piperidin-3-yl)amino)cyclohexyl)amino)pyridin-4-yl)acrylate] | 21 nM

The remaining lines, values ahead:

EC50 | SMILES
10 nM | O=[N+]([O-])c1ccc(N2CCC[C@H](N[C@@H]3CCCC[C@H]3Nc3ncc(-c4ccc(F)cc4F)o3)C2)cc1 [Example 20, (1R,2R)—N1-(5-(2,4-Difluorophenyl)oxazol-2-yl)-N2-((S)-1-(4-nitrophenyl)piperidin-3-yl)cyclohexane-1,2-diamine]
1 nM | O=[N+]([O-])c1ccc(N2CCC[C@H](N[C@@H]3CCCC[C@H]3Nc3ncc(-c4ccc(O)cc4)o3)C2)cc1 [Example 12, 4-(2-((1R,2R)-2-((S)-1-(4-Nitrophenyl)piperidin-3-ylamino)cyclohexylamino)oxazol-5-yl)phenol]
0.7 nM | CCOC(=O)Nc1cccc(-c2cnc(N[C@@H]3CCCC[C@H]3N[C@H]3CCCN(c4cnc(C(F)(F)F)cn4)C3)o2)c1 [Example 98, Ethyl 3-(2-((1R,2R)-2-((S)-1-(5-(trifluoromethyl)pyrazin-2-yl)piperidin-3-ylamino)cyclohexylamino)oxazol-5-yl)phenylcarbamate]

same assay, conditions: second TABLE 1, R2 is Phenyl-CF3; read-out: hY4 CAMP EC50

SMILES | EC50
FC(F)(F)c1ccc(N2CCC[C@H](N[C@@H]3CCCC[C@H]3Nc3cc(-c4cccc5c4CCNC5)ccn3)C2)cc1 [Example 145] | 905 nM
C[C@]1(N[C@@H]2CCCC[C@H]2Nc2cc(-c3cccc(C(N)=O)c3)ccn2)CCCN(c2ccc(C(F)(F)F)cc2)C1 [Example 120] | 3 nM
NC(=O)c1cccc(-c2ccnc(N[C@@H]3CCCC[C@H]3N[C@H]3C[C@@H]4C[C@H]3N(c3ccc(C(F)(F)F)cc3)C4)c2)c1 [Example 179] | 7 nM
CC(C)(O)c1cccc(-c2ccnc(N[C@@H]3CCCC[C@H]3N[C@H]3CCCN(c4ccc(C(F)(F)F)cc4)C3)c2)c1 [Example 126] | 48 nM

Further lines, results first:

EC50 | SMILES
79 nM | NCc1cccc(-c2ccnc(N[C@@H]3CCCC[C@H]3N[C@H]3CCCN(c4ccc(C(F)(F)F)cc4)C3)c2)c1 [Example 127]
363 nM | CC(=O)N(C)c1cccc(-c2ccnc(N[C@@H]3CCCC[C@H]3N[C@H]3CCCN(c4ccc(C(F)(F)F)cc4)C3)c2)c1 [Example 174]
234 nM | CN(C)C(=O)c1cccc(-c2cnc(N[C@@H]3CCCC[C@H]3N[C@H]3CCCN(c4ccc(C(F)(F)F)cc4)C3)o2)c1 [Example 123]
258 nM | FC(F)(F)c1ccc(N2CCC[C@H](N[C@@H]3CCCC[C@H]3Nc3ncc(Br)cn3)C2)cc1 [Example 182]
2 nM | CCNC(=O)c1cccc(-c2cnc(N[C@@H]3CCCC[C@H]3N[C@H]3CCCN(c4ccc(C(F)(F)F)cc4)C3)o2)c1 [Example 124]
14 nM | C[C@@H](O)c1cccc(-c2ccnc(N[C@@H]3CCCC[C@H]3N[C@H]3CCCN(c4ccc(C(F)(F)F)cc4)C3)c2)c1 [Example 168]
